From article PMC9970268 (Cancer Research Communications, 2022)

Assays:
CYP2C9 = target: T1, CYP2C9 (Homo sapiens, UniProt P11712); test: CyP450 enzyme assay (P450-Glo); type: in vitro ADME; details: recombinant human CYP enzyme, 0.001–100 μmol/L
T1 construct: purchased Promega
Protocol: (§1) The assay was carried out using P450-Glo Screening System (Promega). The system contained recombinant human CYP enzyme and P450 reductase (and cytochrome b5 for CYP2C9, 2C19, and 3A4), luminogenic substrates appropriate for each CYP enzyme, a NADPH regeneration system (containing NADP+), and luciferin detection reagent. […] These compounds and organic solvents acetonitrile, and DMSO were purchased from Sigma-Aldrich.
(§2) First, 12.5 μL of the 4X stock solution of test compounds or positive controls (appropriate for each enzyme) were added to the “treated” wells. For the “untreated” (the values from these wells represent total CYP activity) and “minus-P450 control” wells (the values from these wells represent the CYP-independent background luminescence of the assay), 12.5 μL of vehicle was added. Then, 12.5 μL of the 4X control reaction mixture (containing membrane preparations devoid of CYP enzymes, the appropriate luminogenic substrate, and potassium phosphate buffer) were added to the minus-P450 control wells, and 12.5 μL of the 4X reaction mixture (containing human CYP membrane preparations, the appropriate luminogenic substrate, and potassium phosphate buffer) were added to all other wells. The plates were preincubated at room temperature for 10 minutes with the reaction mixture (membrane with enzyme, substrate, and 1 mol/L potassium phosphate buffer), and then 2X NADPH regeneration system was added to initiate the reaction. After incubation at room temperature for 30 minutes, 50 μL of the Luciferin Detection Reagent was added to stop the reaction and generate the luminescent signal. Before reading, the plate was incubated at room temperature for 20 minutes to stabilize the luminescent signal. The luminescence was measured using an Infinite F200 plate reader (Tecan). […] The percentage of CYP enzyme activity versus log concentration of test compounds were plotted to calculate the IC50 values.

CYP3A4 = target: T2, CYP3A4 (Homo sapiens, UniProt P08684); test: CyP450 enzyme assay (P450-Glo); type: in vitro ADME; details: for IC50: recombinant human CYP enzyme, 0.001–100 μmol/L
T2 construct: purchased Promega
T2 sequence (P08684 whole entry): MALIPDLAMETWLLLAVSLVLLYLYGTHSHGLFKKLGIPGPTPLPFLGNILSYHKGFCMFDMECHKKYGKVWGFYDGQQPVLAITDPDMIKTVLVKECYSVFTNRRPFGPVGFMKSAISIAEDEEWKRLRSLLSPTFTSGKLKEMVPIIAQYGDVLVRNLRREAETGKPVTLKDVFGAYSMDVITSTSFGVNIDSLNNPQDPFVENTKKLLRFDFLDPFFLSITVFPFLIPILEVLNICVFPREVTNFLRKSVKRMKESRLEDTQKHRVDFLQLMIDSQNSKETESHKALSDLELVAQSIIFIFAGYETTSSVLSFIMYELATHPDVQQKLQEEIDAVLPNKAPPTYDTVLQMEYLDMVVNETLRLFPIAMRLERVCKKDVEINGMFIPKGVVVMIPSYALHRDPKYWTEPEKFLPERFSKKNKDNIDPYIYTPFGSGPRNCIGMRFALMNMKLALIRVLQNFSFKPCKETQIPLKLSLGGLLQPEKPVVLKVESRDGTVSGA
Protocol: as §1, §2

CYP2C19 = target: T3, CYP2C19 (Homo sapiens, UniProt P33261); test: CyP450 enzyme assay (P450-Glo); type: in vitro ADME
T3 construct: purchased Promega
T3 sequence (P33261 whole entry): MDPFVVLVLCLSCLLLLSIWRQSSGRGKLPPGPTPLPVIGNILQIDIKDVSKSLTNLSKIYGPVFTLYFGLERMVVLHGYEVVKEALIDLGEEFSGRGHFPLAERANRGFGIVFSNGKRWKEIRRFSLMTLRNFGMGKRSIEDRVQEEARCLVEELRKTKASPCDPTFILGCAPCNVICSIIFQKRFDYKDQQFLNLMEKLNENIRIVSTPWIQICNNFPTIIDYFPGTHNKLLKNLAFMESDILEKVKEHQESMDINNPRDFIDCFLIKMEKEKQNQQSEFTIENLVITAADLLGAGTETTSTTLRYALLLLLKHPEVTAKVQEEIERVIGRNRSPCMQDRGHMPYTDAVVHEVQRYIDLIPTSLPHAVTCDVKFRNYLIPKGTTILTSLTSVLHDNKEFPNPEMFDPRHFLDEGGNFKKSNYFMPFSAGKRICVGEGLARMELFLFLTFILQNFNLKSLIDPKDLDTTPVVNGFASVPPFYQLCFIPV
Protocol: as §1, §2

MDA-MB-231 cells = test: Phalloidin staining of F-actin, cell phenotype; type: cell-based, human; details: 250 nmol/L, 12 hours
Source text: Cells were fixed, permeabilized, and stained with rhodamine phalloidin to visualize F-actin as described previously ([23]). Fluorescence micrographs were acquired at 40× in a Keyence fluorescence microscope.

[1] = system: Rac, Cdc42, RhoA, PAK, and p-PAK; test: Western blot of tumor lysates from treated mice; type: in vivo, SCID mice; details: GFP-HER2-BM tumors, 5 mg/kg BW, 53 days
Source text: Treatments continued until sacrifice at day 53.
(§3) Total cell lysates or pulldowns were Western blotted using routine procedures. The primary antibodies used were anti-Rac (Cell Signaling Technology), anti-Cdc42 (Abcam), anti-PAK1+PAK2+PAK3 (Cell Signaling Technology), anti-pPAK1 (T423)/PAK2 (T402; Abcam), anti-PAK1 + PAK2 + PAK3 (phospho T423; Abcam), Rac1B, and β-actin (Millipore-Sigma).

Rho = Rho activation assay (Rho.GTP-binding domain of Rhotekin); type: cell-based, human; details: 250 nmol/L
Source text: Cells were lysed and equal amounts of proteins were subjected to pulldown assays using the p21-binding domain of PAK to isolate the GTP bound Rac1 or Cdc42. […] Top, Pulldown showing GTP bound Rac1; Middle, Total Rac1 in lysates; Bottom, Actin as a loading control. B, Right, Results from positive bands in Western blots quantified using ImageJ. […] Top band, Rac1B.GTP from the pulldown; Middle band, Total Rac1B from cell lysates; Bottom band, Actin (N = 3). […] Top, Pulldown showing GTP bound Cdc42; Middle, Total Cdc42 in lysates; Bottom, Actin as a loading control. E, Right, Results from positive bands in Western blots quantified using ImageJ. […] (n = 3–4; *, P < 0.05; **, P < 0.01; ns, not significant). Error bars represent SEM. […] Rho activation assay was done using the Rho.GTP-binding domain of Rhotekin. […] Cells were lysed and Western blotted for total and active PAK. Left, Top, Cell lysates probed with an anti PAK1/2/3 antibody; second, Western blot analysis with anti phospho (p)-PAK (1/2/3)^Ser141,144,154; third, Western blot analysis with p-PAK (1/2/3)^Thr423; fourth, Anti actin. H, Fold change in p-PAK/PAK for PAK 1/3 (68 kD) for total p-PAK^Ser141,144,154 and p-PAK^Thr423. (n = 3; **, P < 0.01; ***, P < 0.001; ns, not significant). […] Tumor lysates were Western blotted with antibodies specific for Rac1, Cdc42, PAK1/2/3, p-PAK (1/2/3)^Ser141,144,154, or p-PAK^Thr423. […]

RhoA = RhoA (Homo sapiens, UniProt P61586); test: Nucleotide association assay, catalyzed by Dbs; details: 2 μmol/L, N-MAR-GTP
Chain of RhoA (P61586 whole entry): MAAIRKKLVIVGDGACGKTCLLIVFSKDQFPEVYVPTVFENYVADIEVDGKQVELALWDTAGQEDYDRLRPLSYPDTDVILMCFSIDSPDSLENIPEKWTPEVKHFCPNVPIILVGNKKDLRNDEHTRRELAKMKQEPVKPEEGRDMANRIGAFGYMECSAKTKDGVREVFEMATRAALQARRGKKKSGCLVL
Protocol: The nucleotide loading on purified Rho GTPases was monitored using a fluorophore-based Rho GEF Exchange Assay Kit as per manufacturer's instructions (Cytoskeleton, Inc.). Drugs were diluted in exchange buffer and incubated with Rac1, Cdc42, or RhoA. […] After the initial five readings (T0), GEFs (Dbs or Vav2) or Ethylenediaminetetraacetic acid (EDTA) was added to stimulate exchange and readings were obtained every 30 seconds for at least 60 cycles.
After initial five readings, the exchange factor Dbs was added to catalyze the loading of N-
B. 2µM Rac1 was incubated with 0 or 2 µM

PAK1/2/3 = test: Western blot of PAK phosphorylation in MDA-MB-231 cells; type: cell-based, human; details: MDA-MB-231, 250 nmol/L
Source text: as §3

MCF7 breast cancer cells = test: Cell viability (MTT) assay; type: cell-based, human; details: 250 nmol/L, 120 hr
Protocol: Using CellTiter 96 Non-Radioactive Cell Proliferation Assay (Promega, Corp.) according to manufactures’ instructions, formazan was used as an indicator of viable cells at an absorbance 570 nm in a Tecan Microplate Reader M100 (Tecan). Data were calculated as fold change from vehicle and transformed to logarithm base 10. 0 concentration was replaced with 1 nmol/L to fit using the 4-parameter logic nonlinear regression model in GraphPad Prism software. (n = 3 biologic replicates: with three technical replicates each).
Supplementary Figure S1. Percentage cell viability of MDA-MB-231, GFP-HER2-BM, […]
nM for 120 hr. The bar graphs are presented as individual fold change data points from vehicle and grouped mean ± SEM. (n = 3; *, P < 0.05; ** P < 0.01).
(1 picture or pasted object on this page, not shown here)

T1 sequence (P11712 whole entry): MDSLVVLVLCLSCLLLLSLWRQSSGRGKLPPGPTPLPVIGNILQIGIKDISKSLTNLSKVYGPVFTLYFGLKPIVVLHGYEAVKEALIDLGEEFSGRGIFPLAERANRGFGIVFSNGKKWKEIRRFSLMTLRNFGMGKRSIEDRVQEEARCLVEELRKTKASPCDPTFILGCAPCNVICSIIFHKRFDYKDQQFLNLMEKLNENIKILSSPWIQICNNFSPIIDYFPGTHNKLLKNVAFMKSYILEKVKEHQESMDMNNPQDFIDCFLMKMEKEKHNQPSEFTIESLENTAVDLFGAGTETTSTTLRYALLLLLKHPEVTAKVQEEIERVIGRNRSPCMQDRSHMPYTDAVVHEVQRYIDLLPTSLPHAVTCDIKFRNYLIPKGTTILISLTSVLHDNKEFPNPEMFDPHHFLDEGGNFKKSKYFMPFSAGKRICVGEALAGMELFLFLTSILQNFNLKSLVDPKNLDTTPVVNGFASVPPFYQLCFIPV

Row | Compound | IC50 (CYP2C9) [nM] | potency at inhibiting CYP3A4, times less potent than MBQ-167 (CYP3A4) | IC50 (CYP3A4) [nM] | CYP2C19 IC50, fold lower than the IC50 for the positive control (CYP2C19) | IC50 at 30 min (CYP2C19; human, recombinant human CYP enzyme, 0.001–100 μmol/L) [nM] | cell phenotype, actin cytoskeleton (MDA-MB-231 cells) | Cdc42 and RhoA levels [1] | reduction of Thr 423 phosphorylation in PAKs 1, 2, 3 compared with vehicle [1] | reduction of p-Serine 141,144,154 levels in PAK1, 2, and 3 [1] | total Rac, and PAK1/2/3 levels [1] | Rho activation (Rho) | Dbs-catalyzed exchange of RhoA (RhoA) | decrease of p-PAK ser 141, 154, PAK1/3 (68 kD band) (PAK1/2/3) | reduction of p-PAK1/3 levels (Thr423) (PAK1/2/3) | reduction of p-PAK2 S144 (61 kD band) (PAK1/2/3) | reduction of p-PAK2 T423 (61 kD band) (PAK1/2/3) | inhibition of cell viability (MCF7 breast cancer cells) [%] | IC50 (CYP2C19; recombinant human CYP enzyme, 0.001–100 μmol/L) [nM]
1 | CCn1c2ccccc2c2cc(-n3nncc3-c3cccc(OC)c3)ccc21 [MBQ-168] | 670 | approximately 10 X | 3180 | approximately 6 fold | 523 | acquired a round shape with punctate actin staining | remain unaffected | approximately 50% | approximately 75% | Decreases were observed | do not affect | did not affect | approximately 95% | approximately 100% | approximately 50% | approximately 100% | 40 | 
2 | CCn1c2ccccc2c2cc(-n3nncc3-c3ccccc3)ccc21 [MBQ-167] | 890 |  | 280 |  |  | acquired a round shape with punctate actin staining | remain unaffected | approximately 50% | did not show changes | Decreases were observed | do not affect |  |  | approximately 75% | approximately 50% | approximately 60% | 40 | 455
